In brackets after ≈: the same amount, converted by molar mass. Activity calls are given as the source filed them. No cut-off for these calls is given here.
Experiments:
Diplodia seriata [1] = test: Decrease in Diplodia seriata (Schwein.) Shoemaker mycelium biomass production measured at 28 degC after 4 days by gravimetric analysis; type: functional
Botryosphaeria dothidea [2] = test: Decrease in Botryosphaeria dothidea ligninolytic enzyme production assessed as pectinase activity using pectin as substrate at 1 mM measured at 28 degC after 4 days; type: functional, organism-based
Diplodia seriata [3] = test: Inhibition of Diplodia seriata (Schwein.) Shoemaker mycelium growth measured at 28 degC after 4 days; type: functional
Lasiodiplodia theobromae [4] = test: Inhibition of Lasiodiplodia theobromae mycelium growth measured at 28 degC after 4 days; type: functional
Lasiodiplodia theobromae [5] = test: Decrease in Lasiodiplodia theobromae ligninolytic enzyme production assessed as pectinase activity using pectin as substrate at 25 mM measured at 28 degC after 4 days; type: functional; conditions: 96 h
Neofusicoccum ribis [6] = test: Inhibition of Neofusicoccum ribis mycelium growth measured at 28 degC after 4 days; type: functional
Lasiodiplodia theobromae [7] = test: Decrease in Lasiodiplodia theobromae ligninolytic enzyme production assessed as laccase activity using ABTS as substrate at 1 mM measured at 28 degC after 4 days; type: functional; conditions: 96 h
Diplodia seriata [8] = test: Inhibition of Diplodia seriata (Schwein.) Shoemaker mycelium growth at 15 mM measured at 28 degC after 4 days; type: functional, organism-based
Botryosphaeria dothidea [9] = test: Decrease in Botryosphaeria dothidea ligninolytic enzyme production assessed as laccase activity using ABTS as substrate at 15 mM measured at 28 degC after 4 days; type: functional, organism-based
Neofusicoccum ribis [10] = test: Decrease in Neofusicoccum ribis mycelium biomass production at 25 mM measured at 28 degC after 4 days by gravimetric analysis; type: functional; conditions: 96 h
Lasiodiplodia theobromae [11] = test: Decrease in Lasiodiplodia theobromae mycelium biomass production measured at 28 degC after 4 days by gravimetric analysis; type: functional
Botryosphaeria dothidea [12] = test: Decrease in Botryosphaeria dothidea ligninolytic enzyme production assessed as laccase activity using ABTS as substrate measured at 28 degC after 4 days; type: functional, organism-based
Lasiodiplodia theobromae [13] = test: Inhibition of Lasiodiplodia theobromae mycelium growth at 25 mM measured at 28 degC after 4 days; type: functional; conditions: 96 h, read-out: GI
Neofusicoccum ribis [14] = test: Inhibition of Neofusicoccum ribis mycelium growth at 20 mM measured at 28 degC after 4 days; type: functional, organism-based
Botryosphaeria dothidea [15] = test: Inhibition of Botryosphaeria dothidea mycelium growth measured at 28 degC after 4 days; type: functional
Neofusicoccum ribis [16] = test: Decrease in Neofusicoccum ribis ligninolytic enzyme production assessed as pectinase activity using pectin as substrate measured at 28 degC after 4 days; type: functional, organism-based
Neofusicoccum ribis [17] = test: Inhibition of Neofusicoccum ribis mycelium growth at 15 mM measured at 28 degC after 4 days; type: functional, organism-based
Lasiodiplodia theobromae [18] = test: Inhibition of Lasiodiplodia theobromae mycelium growth at 15 mM measured at 28 degC after 4 days; type: functional; conditions: 96 h, read-out: GI
Botryosphaeria dothidea [19] = test: Inhibition of Botryosphaeria dothidea mycelium growth at 20 mM measured at 28 degC after 4 days; type: functional, organism-based
Diplodia seriata [20] = test: Decrease in Diplodia seriata (Schwein.) Shoemaker ligninolytic enzyme production assessed as pectinase activity using pectin as substrate at 1 mM measured at 28 degC after 4 days; type: functional, organism-based
Lasiodiplodia theobromae [21] = test: Inhibition of Lasiodiplodia theobromae mycelium growth at 20 mM measured at 28 degC after 4 days; type: functional; conditions: 96 h, read-out: GI
Botryosphaeria dothidea [22] = test: Decrease in Botryosphaeria dothidea ligninolytic enzyme production assessed as laccase activity using ABTS as substrate at 5 mM measured at 28 degC after 4 days; type: functional
Neofusicoccum ribis [23] = test: Decrease in Neofusicoccum ribis ligninolytic enzyme production assessed as laccase activity using ABTS as substrate at 1 mM measured at 28 degC after 4 days; type: functional; conditions: 96 h
Neofusicoccum ribis [24] = test: Inhibition of Neofusicoccum ribis mycelium growth at 25 mM measured at 28 degC after 4 days; type: functional; conditions: 96 h, read-out: GI
Botryosphaeria dothidea [25] = test: Inhibition of Botryosphaeria dothidea mycelium growth at 25 mM measured at 28 degC after 4 days; type: functional; conditions: 96 h, read-out: GI
Diplodia seriata [26] = test: Inhibition of Diplodia seriata (Schwein.) Shoemaker mycelium growth at 25 mM measured at 28 degC after 4 days; type: functional; conditions: 96 h, read-out: GI
Botryosphaeria dothidea [27] = test: Decrease in Botryosphaeria dothidea ligninolytic enzyme production assessed as laccase activity using ABTS as substrate at 1 mM measured at 28 degC after 4 days; type: functional
Diplodia seriata [28] = test: Decrease in Diplodia seriata (Schwein.) Shoemaker ligninolytic enzyme production assessed as pectinase activity using pectin as substrate at 15 mM measured at 28 degC after 4 days; type: functional, organism-based
Botryosphaeria dothidea [29] = test: Inhibition of Botryosphaeria dothidea mycelium growth at 10 mM measured at 28 degC after 4 days; type: functional, organism-based
Diplodia seriata [30] = test: Decrease in Diplodia seriata (Schwein.) Shoemaker ligninolytic enzyme production assessed as laccase activity using ABTS as substrate at 1 mM measured at 28 degC after 4 days; type: functional; conditions: 96 h
Diplodia seriata [31] = test: Inhibition of Diplodia seriata (Schwein.) Shoemaker mycelium growth at 10 mM measured at 28 degC after 4 days; type: functional, organism-based
Botryosphaeria dothidea [32] = test: Decrease in Botryosphaeria dothidea ligninolytic enzyme production assessed as laccase activity using ABTS as substrate at 25 mM measured at 28 degC after 4 days; type: functional; conditions: 96 h
Phellinus tremulae = test: Inhibition of Phellinus tremulae mycelium growth; type: functional

Structure (SMILES)	inhibition (INH) (Diplodia seriata [1]) [%]	inhibition (Botryosphaeria dothidea [2])	MIC (Diplodia seriata [3]; 96 h) [mM]	MIC (Lasiodiplodia theobromae [4]; 96 h) [mM]	inhibition at 25000 µM (Lasiodiplodia theobromae [5]) [%]	MIC (Neofusicoccum ribis [6]; 96 h) [mM]	inhibition at 1000 µM (Lasiodiplodia theobromae [7]) [%]	growth inhibition (GI) (Diplodia seriata [8])	inhibition at 25000 µM (Neofusicoccum ribis [10]) [%]	inhibition (INH) (Lasiodiplodia theobromae [11]) [%]	inhibition (Botryosphaeria dothidea [12])	inhibition of growth at 25000 µM (Lasiodiplodia theobromae [13]) [%]	growth inhibition (GI) (Neofusicoccum ribis [14])	MIC (Botryosphaeria dothidea [15]; 96 h) [mM]	inhibition (Neofusicoccum ribis [16])	inhibition of growth at 25000 µM (Neofusicoccum ribis [24]) [%]	further results
O=C(O)c1ccccc1O [SALICYLIC ACID]	58	inactive	5 (≈ 691 µg/mL)	5 (≈ 691 µg/mL)	57	5 (≈ 691 µg/mL)	58	Active	50	58	Active	100	Active	5 (≈ 691 µg/mL)	inactive		inhibition (Botryosphaeria dothidea [9]): Active
COc1cccc(OC)c1O [SYRINGOL]	58	inactive	5 (≈ 771 µg/mL)	5 (≈ 771 µg/mL)	57	5 (≈ 771 µg/mL)	58	Active	50	58	Active			5 (≈ 771 µg/mL)	inactive		growth inhibition (GI) (Neofusicoccum ribis [17]): Active; inhibition of growth at 15000 µM (Lasiodiplodia theobromae [18]): 100%; growth inhibition (GI) (Botryosphaeria dothidea [19]): Active
COc1cc(C(=O)O)cc(OC)c1O [SYRINGIC ACID]		inactive			57		58								inactive		inhibition (Diplodia seriata [1]): inactive; MIC (Diplodia seriata [3]): inactive; MIC (Lasiodiplodia theobromae [4]): inactive; MIC (Neofusicoccum ribis [6]): inactive; inhibition (Lasiodiplodia theobromae [11]): inactive; inhibition (Diplodia seriata [20]): Active; MIC (Botryosphaeria dothidea [15]): inactive
Oc1ccccc1O [CATECHOL]	58	inactive	5 (≈ 551 µg/mL)	5 (≈ 551 µg/mL)	57	5 (≈ 551 µg/mL)	58	Active	100	58			Active	5 (≈ 551 µg/mL)	inactive		inhibition of growth at 20000 µM (Lasiodiplodia theobromae [21]): 100%; growth inhibition (GI) (Botryosphaeria dothidea [19]): Active
COc1cc(/C=C/C(=O)O)ccc1O [FERULATE]	58	inactive	5 (≈ 971 µg/mL)	5 (≈ 971 µg/mL)	57	5 (≈ 971 µg/mL)	82	Active		58	Active	81		5 (≈ 971 µg/mL)	inactive	74	inhibition at 5000 µM (Botryosphaeria dothidea [22]; 96 h): 90%; inhibition at 1000 µM (Neofusicoccum ribis [23]): 82%
COc1cccc(OC)c1C(=O)O [2,6-DIMETHOXYBENZOIC ACID]	58	inactive	5 (≈ 911 µg/mL)	5 (≈ 911 µg/mL)	57	5 (≈ 911 µg/mL)	58		50	58	Active	62		5 (≈ 911 µg/mL)	inactive	86	inhibition (Botryosphaeria dothidea [22]): inactive; inhibition of growth at 25000 µM (Botryosphaeria dothidea [25]): 95%; inhibition of growth at 25000 µM (Diplodia seriata [26]): 95%
COc1ccccc1O [GUAIACOL]	58		5 (≈ 621 µg/mL)	5 (≈ 621 µg/mL)	57	5 (≈ 621 µg/mL)	58	Active		58	Active		Active	5 (≈ 621 µg/mL)	inactive		inhibition of growth at 15000 µM (Lasiodiplodia theobromae [18]): 100%; inhibition (Botryosphaeria dothidea [27]): inactive; inhibition (Diplodia seriata [28]): Active
O=C(O)/C=C/c1ccc(O)cc1 [COUMARIC ACID]	58	inactive	5 (≈ 821 µg/mL)	5 (≈ 821 µg/mL)	57	5 (≈ 821 µg/mL)	71			58	Active	100		5 (≈ 821 µg/mL)	inactive	81	growth inhibition (GI) (Botryosphaeria dothidea [29]): Active; inhibition at 1000 µM (Diplodia seriata [30]): 71%; inhibition at 1000 µM (Neofusicoccum ribis [23]): 71%; growth inhibition (GI) (Diplodia seriata [31]): Active; inhibition at 1000 µM (Botryosphaeria dothidea [27]; 96 h): 71%
O=C(O)c1ccccc1 [BENZOIC ACID]		inactive	5 (≈ 611 µg/mL)	5 (≈ 611 µg/mL)	57	5 (≈ 611 µg/mL)	58		50				Active	5 (≈ 611 µg/mL)	inactive		growth inhibition (GI) (Botryosphaeria dothidea [29]): Active; growth inhibition (GI) (Diplodia seriata [31]): Active; inhibition of growth at 20000 µM (Lasiodiplodia theobromae [21]): 100%; inhibition at 25000 µM (Botryosphaeria dothidea [32]): 96%; MIC (Phellinus tremulae): 800 µg/mL (≈ 6.55 mM); inhibition (Diplodia seriata [20]): Active
COc1cc(C(=O)O)ccc1O [VANILLIC ACID]	58	inactive	5 (≈ 841 µg/mL)	5 (≈ 841 µg/mL)	57	5 (≈ 841 µg/mL)	58	Active	50	58	Active	52		5 (≈ 841 µg/mL)	inactive	83	inhibition (Botryosphaeria dothidea [22]): inactive; inhibition of growth at 25000 µM (Botryosphaeria dothidea [25]): 93%; inhibition (Botryosphaeria dothidea [9]): Active

Reference: ChEMBL document CHEMBL3044718, “Effect of phenolic compounds on growth and ligninolytic enzyme production in Botryosphaeria isolates” (2013)
